Test results: patent US10882838B2, “Cannabinergic compounds and uses thereof” (Northeastern University, priority 2012, dated 2021)

Legend:
hCB2 receptor = hCB2 receptor (Homo sapiens (Human), UniProt P34972); test: hCB2 competition-equilibrium binding with [3H]CP-55,940, membranes of HEK293 cells expressing hCB2; conditions: HEK293 cells expressing hCB2, [3H]CP-55,940; read-out: hCB2 Ki
Protocol: (§1) HEK293 cells expressing hCB1 or hCB2 or mCB2 receptor are used for membrane preparations according to Abadji et al. The resulting pellet is resuspended in 10 mM Tris-chloride, pH 7.4, with 5 mM MgCl2 and 2 mM EDTA (TME), rapidly frozen in liquid nitrogen and stored at −80° C. for no longer than two months. Protein content is assayed by using the Bio-Rad protein assay according to the manufacturer's protocol.
(§2) All the cannabinoids discussed in this invention are tested for their ability to bind to CB1 and CB2 receptors using membranes from rat brain or HEK293 cells expressing either mCB2 or hCB2, respectively via competition-equilibrium binding using [^3H]CP-55,940. Results are analyzed using nonlinear regression to determine ligand IC50 (Prism by GraphPad Software, Inc.), and Ki values are calculated from the IC50. IC50 and Ki values are determined from at least three independent experiments.

CB1 receptor = CB1 receptor (Rattus norvegicus (Rat), UniProt P20272); test: rCB1 competition-equilibrium binding with [3H]CP-55,940, rat brain membranes; conditions: rat brain membranes, [3H]CP-55,940; read-out: rCB1 Ki
Protocol: Frozen rat brains (CB1 source) are obtained from Pel-Freeze Biologicals (Rogers, Ak.) and stored at −80° C. until use. Membranes are prepared according to the method described by Dodd et al. and used in our laboratory as reported.
as §2

mCB2 receptor = mCB2 receptor (Mus musculus (Mouse), UniProt P47936); test: mCB2 competition-equilibrium binding with [3H]CP-55,940, membranes of HEK293 cells expressing mCB2; conditions: HEK293 cells expressing mCB2, [3H]CP-55,940; read-out: mCB2 Ki
Protocol: as §1, §2

[1] = Stability in plasma (half-life); assay type: in vitro ADME, rat or monkey; conditions: method: 200 μM in plasma, 37°; species of plasma not given
Protocol: The designed compounds carry a side chain that is susceptible to plasma esterase activity, inviting their rapid deactivation. Thus, it is important to characterize the rate of compound metabolism in isolated rat or monkey plasma. As a preliminary predictor of oral stability, this assay will also be done in buffers at pH 2 (to emulate the stomach) and pH 7.4 (physiological pH). Compounds (10 mM in DMSO) are diluted in plasma, acetonitrile or buffer to a concentration of 200 μM and incubated in a 37° shaking water bath for 2 hours. Samples are taken periodically, diluted 1:4 with acetonitrile and centrifuged to precipitate protein. The resulting supernatant is analyzed by HPLC to predict expected in vivo plasma half-lives.

[2] = background statement; cited from earlier work
[3] = background statement, up to; cited from earlier work
[4] = background statement; cited from earlier work; remark: listed apart in the source

Structure (SMILES) | Ki (hCB2 receptor) [nM] | Ki (CB1 receptor) [nM] | Ki (mCB2 receptor) [nM] | half-life at 200 μM [1] [min] | protein binding [2] [%] | slow and erratic absorption [3] [h] | clog P [4]
CC1=CC[C@@H]2[C@@H](C1)c1c(O)cc(CC(=O)OCCCCBr)cc1OC2(C)C [Compound 1.27, 4-bromobutyl-2-((6aR,10aR)-6a,7,10,10a-tetrahydro-1-hydroxy-6,6,9-trimethyl-6H-benzo[c]chromen-3-yl)acetate] | 7.1 | 2.2 | 11.6 | 3 |  |  | 
CC1=CC[C@@H]2[C@@H](C1)c1c(O)cc(CC(=O)OCCCCC#N)cc1OC2(C)C [Compound 1.28, 4-cyanobutyl-2-((6aR,10aR)-6a,7,10,10a-tetrahydro-1-hydroxy-6,6,9-trimethyl-6H-benzo[c]chromen-3-yl)acetate] | 1.2 | 14.3 | 2.1 | 4.8 |  |  | 
CCCCOC(=O)Cc1cc(O)c2c(c1)OC(C)(C)[C@@H]1CC=C(C)C[C@@H]21 [Compound 1.29, Butyl-2-((6aR,10aR)-6a,7,10,10a-tetrahydro-1-hydroxy-6,6,9-trimethyl-6H-benzo[c]chromen-3-yl)acetate] | 8.2 | 40.3 | 27 | 5 |  |  | 
COC(=O)C(C)(C)c1cc(O)c2c(c1)OC(C)(C)[C@@H]1CC=C(C)C[C@@H]21 [Compound 1.34, Methyl-2-((6aR,10aR)-6a,7,10,10a-tetrahydro-1-hydroxy-6,6,9-trimethyl-6H-benzo[c]chromen-3-yl)-2-methylpropanoate] | 36.8 | 83.1 | 34.5 | 60 |  |  | 
CCCCOC(=O)C(C)(C)c1cc(O)c2c(c1)OC(C)(C)[C@@H]1CC=C(CO)C[C@@H]21 [Compound 2.2, Butyl-2-((6aR,10aR)-6a,7,10,10a-tetrahydro-1-hydroxy-9-(hydroxymethyl)-6,6-dimethyl-6H-benzo[c]chromen-3-yl)-2-methylpropanoate] | 0.8 | 0.6 | 1.5 | 5 |  |  | 
CC(C)(C(=O)OCCCCn1ccnc1)c1cc(O)c2c(c1)OC(C)(C)[C@@H]1CC=C(CO)C[C@@H]21 [Compound 2.3, 4-(1H-imidazol-1-yl)-butyl-2-((6aR,10aR)-6a,7,10,10a-tetrahydro-1-hydroxy-9-(hydroxymethyl)-6,6-dimethyl-6H-benzo[c]chromen-3-yl)-2-methylpropanoate] | 8.7 | 25.3 | 11.6 | 120 |  |  | 
CCCCOC(=O)C(C)(C)c1cc(O)c2c(c1)OC(C)(C)[C@@H]1CC[C@@H](O)C[C@@H]21 [Compound 3.6, Butyl-2-((6aR,9R,10aR)-6a,7,8,9,10,10a-hexahydro-1,9-dihydroxy-6,6-dimethyl-6H-benzo[c]chromen-3-yl)-2-methylpropanoate] | 0.2 | 0.1 | 0.2 | 3 |  |  | 
CCCCOC(=O)C(C)(C)c1cc(O)c2c(c1)OC(C)(C)[C@@H]1CC[C@H](O)C[C@@H]21 [Compound 3.8, Butyl-2-((6aR,9S,10aR)-6a,7,8,9,10,10a-hexahydro-1,9-dihydroxy-6,6-dimethyl-6H-benzo[c]chromen-3-yl)-2-methylpropanoate] | 4.5 | 3.1 | 6.6 | 8 |  |  | 
CCCCCc1cc(O)c2c(c1)OC(C)(C)[C@@H]1CCC(C)=C[C@@H]21 [Dronabinol] |  |  |  |  | ≥ 97 | 2 to 6 | > 7
CCCCCCC(C)(C)c1cc(O)c2c(c1)OC(C)(C)C1CCC(=O)CC21 (stereo not shown) [Nabilone] |  |  |  |  | ≥ 97 |  | > 7
